In general, IC50 refers to the concentration that gives 50% inhibition.

From ChEMBL document CHEMBL4414581, “Cytotoxic Limonoids from the Twigs and Leaves of Toona ciliata” (J Nat Prod, 2019) come the findings set out here.

One data set deals with A549. Description: Cytotoxicity against human A549 cells assessed as reduction in cell viability measured after 48 hrs by MTS assay. It is filed as functional, cell-based. Conditions: A549, 48 h.
The subject of a further data set is SW480. The experiment in a line: Cytotoxicity against human SW480 cells assessed as reduction in cell viability measured after 48 hrs by MTS assay. It is filed as functional, cell-based. Conditions: SW480, 48 h. Background: Formazan colour is commonly taken as a measure of viable cells.
The next data set relates to HL-60. The experiment in a line: Cytotoxicity against human HL60 cells assessed as reduction in cell viability measured after 48 hrs by MTS assay. It is filed as functional, cell-based. As to conditions: HL-60, 48 h.
In another data set the test system is MCF7. The experiment in a line: Cytotoxicity against human MCF7 cells assessed as reduction in cell viability measured after 48 hrs by MTS assay. It is filed as functional, cell-based. As to conditions: MCF7, 48 h.
Data set [1] can be described thus: Cytotoxicity against human […] cells assessed as reduction in cell viability measured after 48 hrs by MTS assay. The class given is functional, cell-based.
The test system of another data set is RAW264.7. Description: Anti-inflammatory activity in mouse RAW264.7 cells assessed as inhibition of LPS-induced nitric oxide production measured after 18 hrs by Griess assay. It is filed as functional, cell-based. As to conditions: RAW264.7, 18 h. (In general: The Griess reaction detects nitrite, a stable product of nitric oxide.)
Data set [2] can be described thus: Cytotoxicity against mouse RAW264.7 cells assessed as cell viability measured after 48 hrs by MTS assay relative to control. It is filed as cell-based. Conditions: read-out: Activity.

For the compound `CC(=O)O[C@H]1[C@H]2O[C@H]3C[C@@H](O)[C@]4(C)OC(=O)[C@H](O)[C@]4(O)[C@@]3(C)[C@@H]2[C@@](C)(O)[C@@]23O[C@@H]2C[C@@H](c2ccoc2)[C@]13C`, the half-inhibitory concentration (IC50) in the data set with A549 is above 10 µM; in the data set on SW480, 4 µM; in the data set on HL-60, 1.6 µM; with MCF7, 3.7 µM; in data set [1] it was above 10 µM.

In the case of `CC1(C)OC(=O)C=C[C@]2(C)[C@H]3CC[C@@]4(C)[C@H](C5=CC(=O)NC5=O)C[C@H]5O[C@]54[C@]3(C)C(=O)C[C@@H]12`, the 50% inhibitory concentration (IC50) is above 10 µM in the data set with A549; 28.3 µM in the data set with RAW264.7; above 10 µM with SW480; above 10 µM in the data set on HL-60; above 10 µM in the data set on MCF7; above 10 µM in data set [1]. In addition, the viability at 48 h in data set [2] is above 100%.

Turning to `C[C@]12[C@H](C[C@@H](O)[C@]3(C)OC(=O)[C@H](O)[C@]13O)O[C@@H]1C[C@@]3(C)[C@H](c4ccoc4)C[C@H]4O[C@]43[C@](C)(O)[C@H]12`, the IC50 is above 10 µM in the data set on A549; 0.9 µM in the data set with SW480; 0.6 µM in the data set on HL-60; 0.9 µM in the data set with MCF7; above 10 µM in data set [1].

As to `C[C@]12[C@H](CC(=O)[C@]3(C)OC(=O)[C@H](O)[C@]13O)O[C@H]1[C@H]2[C@@](C)(O)[C@@]23O[C@@H]2C[C@@H](c2ccoc2)[C@]3(C)[C@H]1O`, the IC50 with A549 is above 10 µM; in the data set with SW480 it was 2.5 µM; with HL-60, 0.9 µM; with MCF7 it was 3 µM; in data set [1] it was above 10 µM.

In the case of `CO[C@@H]1C=C([C@@H]2C[C@H]3O[C@@]34[C@@]2(C)C[C@H]2O[C@H]3C[C@H](O)[C@]5(C)OC(=O)[C@H](O)[C@]5(O)[C@@]3(C)[C@@H]2[C@@]4(C)O)C(=O)O1`, the concentration for half-maximal inhibition (IC50) (with A549; in the data set on SW480; in the data set with HL-60; with MCF7; in data set [1]) was above 10 µM each time.

For `CC1(C)C(=O)C=C[C@]2(C)C3=CC[C@@]4(C)[C@H](C5=CCNC5=O)C[C@H]5O[C@]54[C@]3(C)C(=O)C[C@@H]12`, the IC50 (in the data set on A549; in the data set with SW480; in the data set on HL-60; with MCF7; in data set [1]) was above 10 µM each time.

For `CC(=O)O[C@@H]1C[C@]2(C)[C@@H](C(=O)C[C@H]2c2ccoc2)[C@]2(C)[C@H](O)C[C@H]3C(C)(C)OC(=O)C=C[C@]3(C)[C@@H]12`, the concentration for half-maximal inhibition (IC50) (in the data set with A549; with SW480; in the data set on HL-60; in the data set with MCF7; in data set [1]) was above 10 µM throughout.

Consider `CO[C@@H]1C=C([C@@H]2C[C@H]3O[C@@]34[C@@]2(C)CC[C@@H]2[C@@]3(C)C=CC(=O)OC(C)(C)[C@@H]3CC(=O)O[C@]24C)C(=O)O1`, for which the IC50 (with A549; in the data set on SW480; with HL-60; with MCF7; in data set [1]) was above 10 µM each time.

Take `CO[C@@H]1C=C([C@@H]2C[C@H]3O[C@@]34[C@@]2(C)C[C@H]2O[C@@]3(O)C=C[C@]5(C)OC(=O)[C@H](O)[C@]5(O)[C@@]3(C)[C@@H]2[C@@]4(C)O)C(=O)O1`: the IC50 (in the data set with A549; in the data set on SW480; with HL-60; in the data set on MCF7; in data set [1]) was above 10 µM each time.

Consider `C[C@]12[C@H](C[C@H](O)[C@]3(C)OC(=O)[C@H](O)[C@]13O)O[C@@H]1C[C@@]3(C)[C@H](c4ccoc4)C[C@H]4O[C@]43[C@](C)(O)[C@H]12`, for which the IC50 (in the data set with A549; in the data set on SW480; in the data set with HL-60; with MCF7; in data set [1]) was above 10 µM each time.

For `C[C@]12[C@H](c3ccoc3)C[C@H]3O[C@]31[C@](C)(O)[C@@H]1[C@H](O[C@@]3(O)C=C[C@]4(C)OC(=O)[C@H](O)[C@]4(O)[C@@]13C)[C@@H]2O`, the IC50 (in the data set on A549; in the data set on SW480; in the data set with HL-60; with MCF7; in data set [1]) was above 10 µM in each case.

As for `CC1(C)OC(=O)C=C[C@]2(C)[C@H]3[C@H](O)C[C@@]4(C)[C@H](c5ccoc5)C[C@H]5O[C@]54[C@]3(C)C(=O)C[C@@H]12`, the IC50 (in the data set on A549; with SW480; with HL-60; with MCF7; in data set [1]) was above 10 µM each time.

As to `CC(=O)O[C@@H]1C[C@@H]2O[C@@H]3C[C@@]4(C)[C@H](c5ccoc5)C[C@H]5O[C@]54[C@](C)(O)[C@H]3[C@]2(C)[C@@]2(O)[C@@H](O)C(=O)O[C@@]12C`, the IC50 in the data set with A549 was above 10 µM; with SW480, 3.7 µM; in the data set on HL-60, above 10 µM; in the data set with MCF7, 2.4 µM; in data set [1] it was above 10 µM.

On to `CC(=O)O[C@H]1[C@@H](OC(C)=O)[C@]2(C)[C@H]([C@H](O)C[C@@]3(C)[C@H](c4ccoc4)C[C@H]4O[C@@]423)[C@@]2(C)C=CC(=O)OC(C)(C)[C@H]12`, for which the 50% inhibitory concentration (IC50) (in the data set with A549; with SW480; in the data set on HL-60; in the data set on MCF7; in data set [1]) was above 10 µM in each case.

On to `CC(=O)O[C@H]1C(=O)O[C@@]2(C)[C@H](OC(C)=O)C[C@@H]3O[C@@H]4C[C@@]5(C)[C@H](c6ccoc6)C[C@H]6O[C@]65[C@](C)(O)[C@H]4[C@]3(C)[C@@]12O`, for which the IC50 was above 10 µM with A549; 2.3 µM with SW480; above 10 µM with HL-60; 2.1 µM in the data set on MCF7; above 10 µM in data set [1].

Turning to `C[C@]12[C@H](C[C@H](O)[C@]3(C)OC(=O)[C@H](O)[C@]13O)O[C@H]1[C@H]2[C@@](C)(O)[C@@]23O[C@@H]2C[C@@H](c2ccoc2)[C@]3(C)[C@H]1O`, the half-maximal inhibitory concentration (IC50) (in the data set with A549; in the data set on SW480; with HL-60; in the data set with MCF7; in data set [1]) was above 10 µM in each case.

Regarding `CC1(C)OC(=O)C=C[C@]2(C)[C@H]3CC[C@]4(C)[C@@H](C(=O)C[C@H]4c4ccoc4)[C@]3(C)[C@H](O)C[C@@H]12`, the IC50 (in the data set with A549; with SW480; with HL-60; in the data set with MCF7; in data set [1]) was above 10 µM in each case.

`CO[C@]12C=C[C@]3(C)OC(=O)[C@H](O)[C@]3(O)[C@@]1(C)[C@H]1[C@@H](C[C@@]3(C)[C@H](c4ccoc4)C[C@H]4O[C@]43[C@]1(C)O)O2`: the IC50 (in the data set on A549; with SW480; with HL-60; in the data set with MCF7; in data set [1]) was above 10 µM throughout.

`C[C@]12[C@H]3[C@@H](C[C@@]4(C)[C@H](C5=CCNC5=O)C[C@H]5O[C@]54[C@]3(C)O)O[C@@]1(O)C=C[C@]1(C)OC(=O)[C@H](O)[C@]21O`: the concentration for half-maximal inhibition (IC50) (with A549; with SW480; in the data set on HL-60; with MCF7; in data set [1]) was above 10 µM throughout.

Consider `CC1(C)OC(=O)C=C[C@]2(C)[C@H]3CC[C@@]4(C)[C@H](C5=CCNC5=O)C[C@H]5O[C@]54[C@]3(C)OC(=O)C[C@@H]12`, for which the half-maximal inhibitory concentration (IC50) (in the data set with A549; with SW480; in the data set with HL-60; in the data set on MCF7; in data set [1]) was above 10 µM in each case.

On to `CC1(C)OC(=O)C=C[C@]2(C)[C@H]3C[C@H](O)[C@@]4(C)[C@H](c5ccoc5)C[C@H]5O[C@]54[C@]3(C)OC(=O)C[C@@H]12`, for which the concentration for half-maximal inhibition (IC50) (in the data set on A549; with SW480; with HL-60; in the data set on MCF7; in data set [1]) was above 10 µM each time.

Consider `C[C@]12[C@H]3[C@@H](C[C@@]4(C)[C@H](c5ccoc5)C[C@H]5O[C@]54[C@]3(C)O)O[C@@]1(O)C=C[C@]1(C)OC(=O)[C@H](O)[C@]21O`, for which the IC50 with A549 was above 10 µM; with SW480, 1.5 µM; with HL-60, 2.3 µM; in the data set on MCF7, 2.1 µM; in data set [1], above 10 µM.

As to `C[C@]12[C@H](CC(=O)[C@]3(C)OC(=O)[C@H](O)[C@]13O)O[C@@H]1C[C@@]3(C)[C@H](c4ccoc4)C[C@H]4O[C@]43[C@](C)(O)[C@H]12`, the concentration for half-maximal inhibition (IC50) in the data set on A549 is above 10 µM; in the data set on SW480 it was 2.3 µM; in the data set with HL-60, 0.8 µM; with MCF7 it was 4 µM; in data set [1] it was above 10 µM.
